This is an account of results in article PMC2851491 (The Journal of infectious diseases, 2010).

Read-outs that look alike come from different tables or passages of the source.

Test [1] has as its system A/Wisconsin/67/2005 (H3N2). The test is described as follows: microbe, parasite or virus in culture. The test is classed as cell-based, influenza A/H3N2 virus.
For test [2], the system named is Day 0 wild-type isolate (A/Bethesda/NIH12-0/2008). Kind of test: microbe, parasite or virus in culture. Format: cell-based, influenza A/H3N2 virus.
Test [3] relates to Day 8 isolate (deletion in NA of AA 245–248). The test is classed as cell-based, influenza A/H3N2 virus. The following applies: for IC50: read-out: Plaque Reduction Assay IC50 (95% CI). Background: In a plaque reduction assay, fewer plaques than in the control indicate reduced infectivity or spread.
Test [4] has as its system Day 0 wild-type isolate (A/Bethesda/NIH12-0/2008). Format: cell-based, influenza A/H3N2 virus. The conditions noted are these: read-out: Plaque Reduction Assay IC50 (95% CI).
The test system of test [5] is Day 8 isolate (deletion in NA of AA 245–248). Format: cell-based, influenza A/H3N2 virus. The following applies: read-out: High Throughput Assay EC50 (95% CI).
The target of test [6] is NA of Day 0 wild-type isolate (A/Bethesda/NIH12-0/2008) (Influenza A virus, UniProt D3XBZ2). Format: biochemical, influenza A/H3N2 virus. The following applies: read-out: NA-inhibition Assay IC50 (95% CI).
Test [7] has as its target NA of Day 8 isolate (deletion in NA of AA 245–248) (Influenza A virus, UniProt D3XBZ2, DEL245-248). Kind of test: biochemical. The test is classed as biochemical, influenza A/H3N2 virus.
[8] abbreviates: read-out: High Throughput Assay EC50 (95% CI).

A word on the EC50: it is the concentration needed to bring the measured effect to its halfway point. On to `NC12CC3CC(CC(C3)C1)C2` [Amantadine, amantadine], for which the EC50 in test [1] (Influenza A virus, H3N2, read-out: High Throughput Assay EC50) is more than 200000 nM; in test [2] (Influenza A virus, in Homo sapiens, 0 h, read-out: High Throughput Assay EC50), more than 200000 nM.
Usually IC50 stands for the concentration at which inhibition is half-maximal. With `CCOC(=O)C1=C[C@@H](OC(CC)CC)[C@H](NC(C)=O)[C@@H](N)C1` [Oseltamivir, oseltamivir], the IC50 in test [3] turned out to be 49.7 nM; in test [4] it was 0.38 nM. The values for the EC50 in test [1] (setting [8]), in test [5] and in test [2] (setting [8]) were 0.37 nM, 443 nM and 0.21 nM, respectively.
Take `CC(=O)N[C@H]1[C@H]([C@H](O)[C@H](O)CO)OC(C(=O)O)=C[C@@H]1N=C(N)N` [Zanamivir, zanamivir]: the IC50 in test [6] was determined as 4 nM; in test [3] it was 224 nM; in test [7] it was 12.7 nM; in test [4] it was 15.6 nM. Moreover, the “fold increase in IC50, plaque reduction assay” value in test [3] is recorded as 14 fold. The EC50 came to 6.16 nM in test [1] (setting [8]), 131 nM in test [5] and 18.9 nM in test [2] (setting [8]). In test [7], the “fold increase in IC50, NA activity assay” value came to 3 fold. In addition, in test [7], the “fold increase in IC50 / IC50/EC50, summary over drug sensitivity assays” value lay within 3 to 7 fold.
